System: MCF7 complex spheroid growth, % test/control
Test: Anticancer human tumor MCF7 cell line growth inhibition [Asc];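 also: spheroids exposed to compounds for 7 days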;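 as to viability, T/C: 100% = DMSO vehicle control wells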
Conditions: for IC50: curve of first compound; for viability, T/C: stronger effect = lower value
In short: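 Spheroid model: tumor line + HUVEC + hMSC. Single agents and combinations; top conc. at/near clinical Cmax (10 microM if undetermined), half-log dilutions. DMSO stocks at 800-fold test concentration.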

For `Cn1ncnc1[C@H]1c2n[nH]c(=O)c3cc(F)cc(c23)N[C@@H]1c1ccc(F)cc1` + Cc1c(S(C)(=O)=O)c(-c2cc(F)cc(N3CCN(c4ccc(NS(=O)(=O)c5ccc(NC(CCN6CCC(C(=O)OCCCP(=O)(O)O)CC6)CSc6ccccc6)c(S(=O)(=O)C(F)(F)F)c5)cc4)CC3)c2)c(-c2ccc(Cl)cc2)n1C(C)C, the IC50 (second compound 0.0316 µM) was 20.6 nM, the IC50 (second compound 0.1 µM) was 44.3 nM and the IC50 (second compound 0.316 µM) was 32.1 nM. The IC50 (second compound 1 µM) was 22.5 nM, the IC50 (second compound 3.16 µM) was 39.4 nM and the IC50 (second compound 10 µM) was 17.2 nM. It also gave a viability, T/C (second compound 0.0316 µM, first compound 0.000316 µM) of 116%, a viability, T/C (second compound 0.0316 µM, first compound 0.001 µM) of 113% and a viability, T/C (second compound 0.0316 µM, first compound 0.00316 µM) of 74.6%. It also gave a viability, T/C (second compound 0.0316 µM, first compound 0.01 µM) of 59.4%, a viability, T/C (second compound 0.0316 µM, first compound 0.0316 µM) of 50.7% and a viability, T/C (second compound 0.0316 µM, first compound 0.1 µM) of 39.7%. The viability, T/C (second compound 0.1 µM, first compound 0.000316 µM) was 100%, the viability, T/C (second compound 0.1 µM, first compound 0.001 µM) was 89.8% and the viability, T/C (second compound 0.1 µM, first compound 0.00316 µM) was 78.9%. The viability, T/C (second compound 0.1 µM, first compound 0.01 µM) was 57.7%, the viability, T/C (second compound 0.1 µM, first compound 0.0316 µM) was 50.5% and the viability, T/C (second compound 0.1 µM, first compound 0.1 µM) was 49%. The viability, T/C (second compound 0.316 µM, first compound 0.000316 µM) was 103%, the viability, T/C (second compound 0.316 µM, first compound 0.001 µM) was 75% and the viability, T/C (second compound 0.316 µM, first compound 0.00316 µM) was 80.9%. For the same molecule, the viability, T/C (second compound 0.316 µM, first compound 0.01 µM) was 54.2%, the viability, T/C (second compound 0.316 µM, first compound 0.0316 µM) was 50.9% and the viability, T/C (second compound 0.316 µM, first compound 0.1 µM) was 42.9%. For the same molecule, the viability, T/C (second compound 1 µM, first compound 0.000316 µM) was 106%, the viability, T/C (second compound 1 µM, first compound 0.001 µM) was 81.7% and the viability, T/C (second compound 1 µM, first compound 0.00316 µM) was 95.7%. The viability, T/C (second compound 1 µM, first compound 0.01 µM) was 66.7%, the viability, T/C (second compound 1 µM, first compound 0.0316 µM) was 44.8% and the viability, T/C (second compound 1 µM, first compound 0.1 µM) was 39.3%. For the same molecule, the viability, T/C (second compound 3.16 µM, first compound 0.000316 µM) was 110%, the viability, T/C (second compound 3.16 µM, first compound 0.001 µM) was 86.8% and the viability, T/C (second compound 3.16 µM, first compound 0.00316 µM) was 89.4%. The viability, T/C (second compound 3.16 µM, first compound 0.01 µM) was 57.3%, the viability, T/C (second compound 3.16 µM, first compound 0.0316 µM) was 50.6% and the viability, T/C (second compound 3.16 µM, first compound 0.1 µM) was 46.5%. The viability, T/C (second compound 10 µM, first compound 0.000316 µM) was 85.3%, the viability, T/C (second compound 10 µM, first compound 0.001 µM) was 83.6% and the viability, T/C (second compound 10 µM, first compound 0.00316 µM) was 74.6%. The viability, T/C (second compound 10 µM, first compound 0.01 µM) was 51.7%, the viability, T/C (second compound 10 µM, first compound 0.0316 µM) was 49.9% and the viability, T/C (second compound 10 µM, first compound 0.1 µM) was 36.7%.
In the case of `COc1c(OCCCN2CCOCC2)ccc2c3n(c(=NC(=O)c4cnc(N)nc4)nc12)CCN3` + CCN1C(C(=O)NC23CCC(C(=O)O)(CC2)CC3)C(c2cccc(Cl)c2F)C2(C(=O)Nc3cc(Cl)ccc32)C12CCCCC2, the IC50 (second compound 0.00949 µM) is reported as 48.4 nM, the IC50 (second compound 0.03 µM) is reported as 42.4 nM and the IC50 (second compound 0.0949 µM) is reported as under 3.16 nM. It also gave an IC50 (second compound 0.3 µM) of under 3.16 nM, an IC50 (second compound 0.949 µM) of under 3.16 nM and an IC50 (second compound 3 µM) of under 3.16 nM. It also gave a viability, T/C (second compound 0.00949 µM, first compound 0.00316 µM) of 98.8%, a viability, T/C (second compound 0.00949 µM, first compound 0.01 µM) of 70% and a viability, T/C (second compound 0.00949 µM, first compound 0.0316 µM) of 54.6%. It also gave a viability, T/C (second compound 0.00949 µM, first compound 0.1 µM) of 49%, a viability, T/C (second compound 0.00949 µM, first compound 0.316 µM) of 14.4% and a viability, T/C (second compound 0.00949 µM, first compound 1 µM) of 9.39%. For the same molecule, the viability, T/C (second compound 0.03 µM, first compound 0.00316 µM) was 78.7%, the viability, T/C (second compound 0.03 µM, first compound 0.01 µM) was 77.8% and the viability, T/C (second compound 0.03 µM, first compound 0.0316 µM) was 56.1%. The viability, T/C (second compound 0.03 µM, first compound 0.1 µM) was 29%, the viability, T/C (second compound 0.03 µM, first compound 0.316 µM) was 7.5% and the viability, T/C (second compound 0.03 µM, first compound 1 µM) was 9%. For the same molecule, the viability, T/C (second compound 0.0949 µM, first compound 0.00316 µM) was 47.8%, the viability, T/C (second compound 0.0949 µM, first compound 0.01 µM) was 50.3% and the viability, T/C (second compound 0.0949 µM, first compound 0.0316 µM) was 36.6%. For the same molecule, the viability, T/C (second compound 0.0949 µM, first compound 0.1 µM) was 18.4%, the viability, T/C (second compound 0.0949 µM, first compound 0.316 µM) was 8.59% and the viability, T/C (second compound 0.0949 µM, first compound 1 µM) was 8.82%. For the same molecule, the viability, T/C (second compound 0.3 µM, first compound 0.00316 µM) was 26.4%, the viability, T/C (second compound 0.3 µM, first compound 0.01 µM) was 21.5% and the viability, T/C (second compound 0.3 µM, first compound 0.0316 µM) was 12.6%. It also gave a viability, T/C (second compound 0.3 µM, first compound 0.1 µM) of 4.54%, a viability, T/C (second compound 0.3 µM, first compound 0.316 µM) of 7.49% and a viability, T/C (second compound 0.3 µM, first compound 1 µM) of 8.96%. For the same molecule, the viability, T/C (second compound 0.949 µM, first compound 0.00316 µM) was 17.9%, the viability, T/C (second compound 0.949 µM, first compound 0.01 µM) was 10.1% and the viability, T/C (second compound 0.949 µM, first compound 0.0316 µM) was 4.6%. The viability, T/C (second compound 0.949 µM, first compound 0.1 µM) was 6.32%, the viability, T/C (second compound 0.949 µM, first compound 0.316 µM) was 8.83% and the viability, T/C (second compound 0.949 µM, first compound 1 µM) was 8.95%. It also gave a viability, T/C (second compound 3 µM, first compound 0.00316 µM) of 9.35%, a viability, T/C (second compound 3 µM, first compound 0.01 µM) of 5.25% and a viability, T/C (second compound 3 µM, first compound 0.0316 µM) of 6.94%. The viability, T/C (second compound 3 µM, first compound 0.1 µM) was 6.59%, the viability, T/C (second compound 3 µM, first compound 0.316 µM) was 9.64% and the viability, T/C (second compound 3 µM, first compound 1 µM) was 10%.

From PubChem BioAssay AID1963445 (Molecular Pharmacology Branch, DTP, NCI, 2024)
